14 molecules from US20230295118A1 (EnhancedBio Inc., priority 2022, published 2023) can be followed below.

Common to all, as to assay type: cell-based
In assay [1] the test system is mantle cell lymphoma cell (Mino or JeKo-1). Nature of the assay: Antiproliferative effect, MTS cell viability assay. The note with it: 72 h, mantle cell lymphoma cell (Mino or JeKo-1), MTS assay, read-out: IC50 (anti-proliferation). An outline of the steps: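 Mino cells treated with compounds at 0, 0.0001, 0.001, 0.01, 0.1, 1 μM for 72 h; palbociclib and abemaciclib as positive controls. Viability by MTS, formazan absorbance read at 490 nm.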

Another assay deals with T1, CDK4 (Homo sapiens, UniProt P11802).
T1 construct: endogenous in cells
Nature of the assay: CDK4 degradation (DC50, Dmax).

The target in another assay is T2, CDK6 (Homo sapiens, UniProt Q00534).
T2 construct: endogenous in cells
Nature of the assay: CDK6 degradation (DC50, Dmax).

pIC50: −log10 of the molar value. Some results are limits rather than exact numbers.

The DC50 is the concentration giving 50% degradation. Low values mean degradation at low concentration, high ones degradation only at high concentration. In general, Dmax refers to the greatest extent of degradation seen.

T1 sequence (P11802 whole entry): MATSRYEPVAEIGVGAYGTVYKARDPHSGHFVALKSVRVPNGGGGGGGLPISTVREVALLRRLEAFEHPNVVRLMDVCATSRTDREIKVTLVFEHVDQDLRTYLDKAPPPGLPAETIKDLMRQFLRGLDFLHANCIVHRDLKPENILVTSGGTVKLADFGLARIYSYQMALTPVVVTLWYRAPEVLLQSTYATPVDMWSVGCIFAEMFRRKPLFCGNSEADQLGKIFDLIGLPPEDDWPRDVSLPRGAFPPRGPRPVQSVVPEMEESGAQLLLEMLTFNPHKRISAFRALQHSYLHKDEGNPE
T2 sequence (Q00534 whole entry): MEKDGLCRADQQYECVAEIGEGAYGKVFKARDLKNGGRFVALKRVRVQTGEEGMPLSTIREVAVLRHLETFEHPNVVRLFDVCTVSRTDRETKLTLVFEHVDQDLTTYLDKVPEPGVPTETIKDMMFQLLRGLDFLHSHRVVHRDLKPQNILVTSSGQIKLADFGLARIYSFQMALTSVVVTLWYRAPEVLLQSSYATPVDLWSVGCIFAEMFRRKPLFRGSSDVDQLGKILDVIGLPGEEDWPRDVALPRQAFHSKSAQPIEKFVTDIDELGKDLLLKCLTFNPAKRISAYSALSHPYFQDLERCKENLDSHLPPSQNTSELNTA

On to `Cc1nc2c(F)cc(-c3nc(Nc4ccc(CN5CCN(C(=O)C6CCN(c7ccc(C(=O)NC8CCC(=O)NC8=O)cc7)CC6)CC5)cn4)ncc3F)cc2n1C(C)C` (stereo not shown) [Compound 155, N-(2,6-dioxopiperidin-3-yl)-4-(4-(4-((6-((5-fluoro-4-(4-fluoro-1-isopropyl-2-methyl-1H-benzo[d]imidazol-6-yl)pyrimidin-2-yl)amino)pyridin-3-yl)methyl)piperazine-1-carbonyl)piperidin-1-yl)benzamide], for which the pIC50 in assay [1] was 6.70 to 7.30. On CDK4, this molecule returned a DC50 of 50 to 200 nM and a Dmax above 50%. Also, at CDK6, the DC50 was above 200 nM and the Dmax is above 50%.

On to `Cc1nc2c(F)cc(-c3nc(Nc4ccc(CN5CCN(C6CN(c7ccc(C(=O)NC8CCC(=O)NC8=O)cc7)C6)CC5)cn4)ncc3F)cc2n1C(C)C` (stereo not shown) [Compound 96, N-(2,6-dioxopiperidin-3-yl)-4-(3-(4-((6-((5-fluoro-4-(4-fluoro-1-isopropyl-2-methyl-1H-benzo[d]imidazol-6-yl)pyrimidin-2-yl)amino)pyridin-3-yl)methyl)piperazin-1-yl)azetidin-1-yi)benzamide], for which the pIC50 in assay [1] is above 7.30. At CDK4, this molecule gave a DC50 below 50 nM and a Dmax above 80%. On CDK6, the DC50 was below 50 nM and the Dmax is above 80%.

Turning to `Cc1nc2c(F)cc(-c3nc(Nc4ccc(CC5CCN(CC6CN(c7ccc8c(c7)C(=O)N(C7CCC(=O)NC7=O)C8=O)C6)CC5)cn4)ncc3F)cc2n1C(C)C` (stereo not shown) [Compound 139, 2-(2,6-dioxopiperidin-3-yl)-5-(3-((4-((6-((5-fluoro-4-(4-fluoro-1-isopropyl-2-methyl-1H-benzo[d]imidazol-6-yl)pyrimidin-2-yl)amino)pyridin-3-yl)methyl)piperidin-1-yl)methyl)azetidin-1-yl)isoindoline-1,3-dione], the pIC50 in assay [1] was above 7.30. At CDK4, this molecule gave a DC50 below 50 nM and a Dmax above 80%. At CDK6, this molecule returned a DC50 below 50 nM and a Dmax above 80%.

On to `CC(=O)c1c(C)c2cnc(Nc3ccc(N4CCN(CC5CN(c6ccc(C(=O)NC7CCC(=O)NC7=O)cc6)C5)CC4)cn3)nc2n(C2CCCC2)c1=O` (stereo not shown) [Compound 119, 4-(3-((4-(6-((6-acetyl-8-cyclopentyl-5-methyl-7-oxo-7,8-dihydropyrido[2,3-d]pyrimidin-2-yl)amino)pyridin-3-yl)piperazin-1-yl)methyl)azetidin-1-yl)-N-(2,6-dioxopiperidin-3-yl)benzamide], for which the pIC50 in assay [1] is above 7.30. Further, the DC50 at CDK4 and at CDK6 was 50 to 200 nM each time. For the same molecule, the Dmax on CDK4 and on CDK6 was above 80% in each case.

For the molecule `CC(=O)c1c(C)c2cnc(Nc3ccc(N4CCN(CCN5CCC(c6ccc7c(c6)CN(C6CCC(=O)NC6=O)C7=O)CC5)CC4)cn3)nc2n(C2CCCC2)c1=O` (stereo not shown) [Compound 72, 3-(5-(1-(2-(4-(6-((6-acetyl-8-cyclopentyl-5-methyl-7-oxo-7,8-dihydropyrido[2,3-d]pyrimidin-2-yl)amino)pyridin-3-yl)piperazin-1-yl)ethyl)piperidin-4-yl)-1-oxoisoindolin-2-yl)piperidine-2,6-dione], the pIC50 in assay [1] was 6.70 to 7.30. Also, at CDK4, the DC50 is 50 to 200 nM and the Dmax is above 60%. On CDK6, this molecule displayed a DC50 above 200 nM and a Dmax above 50%.

Take `CC(=O)c1c(C)c2cnc(Nc3ccc(N4CCN(C5CCN(C(=O)N6CCC(CN7CCN(c8ccc9c(c8)C(=O)N(C8CCC(=O)NC8=O)C9=O)CC7)CC6)CC5)CC4)cn3)nc2n(C2CCCC2)c1=O` (stereo not shown) [Compound 86, 5-(4-((1-(4-(4-(6-((6-acetyl-8-cyclopentyl-5-methyl-7-oxo-7,8-dihydropyrido[2,3-d]pyrimidin-2-yl)amino)pyridin-3-yl)piperazin-1-yl)piperidine-1-carbonyl)piperidin-4-yl)methyl)piperazin-1-yl)-2-(2,6-dioxopiperidin-3-yl) isoindoline-1,3-dione]: in assay [1], the pIC50 was 6.70 to 7.30. Besides, the DC50 on CDK4 and on CDK6 was 50 to 200 nM throughout. Besides, the Dmax at CDK4 and on CDK6 was above 60% in each case.

In the case of `CC(=O)c1c(C)c2cnc(Nc3ccc(N4CCN(C5CCN(C(=O)Nc6ccc7c(c6)CN(C6CCC(=O)NC6=O)C7=O)CC5)CC4)cn3)nc2n(C2CCCC2)c1=O` (stereo not shown) [Compound 40, 4-(4-(6-((6-acetyl-8-cyclopentyl-5-methyl-7-oxo-7,8-dibydropyrido[2,3-d]pyrimidin-2-yl)amino)pyridin-3-yl)piperazin-1-yl)-N-(2-(2,6-dioxopiperidin-3-yl)-1-oxoisoindolin-5-yl)piperidine-1-carboxamide], the pIC50 in assay [1] is above 7.30. Besides, at CDK4, the DC50 was in the range of 50 to 200 nM and the Dmax was above 60%. At CDK6, this molecule returned a DC50 of 50 to 200 nM and a Dmax above 80%.

Turning to `CC(=O)c1c(C)c2cnc(Nc3ccc(N4CCN(C(=O)N5CCC(CCN6CCN(c7ccc8c(c7)CN(C7CCC(=O)NC7=O)C8=O)CC6)CC5)CC4)cn3)nc2n(C2CCCC2)c1=O` (stereo not shown) [Compound 20, 3-(5-(4-(2-(1-(4-(6-((6-acetyl-8-cyclopentyl-5-methyl-7-oxo-7,8-dihydropyrido[2,3-d]pyrimidin-2-yl)amino)pyridin-3-yl)piperazine-1-carbonyl)piperidin-4-yl)ethyl)piperazin-1-yl)-1-oxoisoindolin-2-yl)piperidine-2,6-dione], in assay [1], the pIC50 is 6.70 to 7.30. In addition, on CDK4, the DC50 lay in the range of 50 to 200 nM and the Dmax is above 60%. Besides, on CDK6, the DC50 lay within 50 to 200 nM and the Dmax is above 60%.

Take `Cc1nc2c(F)cc(-c3nc(Nc4ccc(CN5CCN(C6CCN(c7ccc8c(c7)CN(C7CCC(=O)NC7=O)C8=O)CC6)CC5)cn4)ncc3F)cc2n1C(C)C` (stereo not shown) [Compound 166, 3-(5-(4-(4-((6-((5-fluoro-4-(4-fluoro-1-isopropyl-2-methyl-1H-benzo[d]imidazol-6-yl)pyrimidin-2-yl)amino)pyridin-3-yl)methyl)piperazin-1-yl)piperidin-1-yl)-1-oxoisoindolin-2-yl)piperidine-2,6-dione]: in assay [1], the pIC50 was above 7.30. Besides, at CDK4, the DC50 lay within 50 to 200 nM and the Dmax was above 80%. Also, at CDK6, the DC50 lay within 50 to 200 nM and the Dmax was above 60%.

Consider `Cc1nc2c(F)cc(-c3nc(Nc4ccc(CC5CCN(C(=O)C6CN(c7ccc8c(c7)C(=O)N(C7CCC(=O)NC7=O)C8=O)C6)CC5)cn4)ncc3F)cc2n1C(C)C` (stereo not shown) [Compound 143, 2-(2,6-dioxopiperidin-3-yl)-5-(3-(4-((6-((5-fluoro-4-(4-fluoro-1-isopropyl-2-methyl-1H-benzo[d]imidazol-6-yl)pyrimidin-2-yl)amino)pyridin-3-yl)methyl)piperidine-1-carbonyl)azetidin-1-yl)isoindoline-1,3-dione], for which the pIC50 in assay [1] was above 7.30. For the same molecule, on CDK4, the DC50 was 50 to 200 nM and the Dmax is above 80%. At CDK6, this molecule came in with a DC50 of 50 to 200 nM and a Dmax above 60%.

Consider `CC(=O)c1c(C)c2cnc(Nc3ccc(N4CCN(C(=O)C5CN(c6ccc(C(=O)NC7CCC(=O)NC7=O)cc6)C5)CC4)cn3)nc2n(C2CCCC2)c1=O` (stereo not shown) [Compound 123, 4-(3-(4-(6-((6-acetyl-8-cyclopentyl-5-methyl-7-oxo-7,8-dihydropyrido[2,3-d]pyrimidin-2-yl)amino)pyridin-3-yl)piperazine-1-carbonyl)azetidin-1-yl)-N-(2,6-dioxopiperidin-3-yl)benzamide], for which the pIC50 in assay [1] was above 7.30. The DC50 on CDK4 and on CDK6 was below 50 nM each time. Also, the Dmax at CDK4 and on CDK6 was above 60% throughout.

For `Cc1nc2c(F)cc(-c3nc(Nc4ccc(CC5CCN(C6CCN(c7ccc8c(c7)C(=O)N(C7CCC(=O)NC7=O)C8=O)CC6)CC5)cn4)ncc3F)cc2n1C(C)C` (stereo not shown) [Compound 169, 2-(2,6-dioxopiperidin-3-yl)-5-(4-((6-((5-fluoro-4-(4-fluoro-1-isopropyl-2-methyl-1H-benzo[d]imidazol-6-yl)pyrimidin-2-yl)amino)pyridin-3-yl)methyl)-[1,4′-bipiperidin]-1′-yl)isoindoline-1,3-dione], the pIC50 in assay [1] was above 7.30. At CDK4, this molecule registered a DC50 of 50 to 200 nM and a Dmax above 80%. In addition, on CDK6, the half-maximal degradation concentration (DC50) lay in the range of 50 to 200 nM and the Dmax was above 80%.

On to `CC(=O)c1c(C)c2cnc(Nc3ccc(N4CCN(CCCN(C)c5ccc6c(c5)CN(C5CCC(=O)NC5=O)C6=O)CC4)cn3)nc2n(C2CCCC2)c1=O` (stereo not shown) [Compound 58, 3-(5-((3-(4-(6-((6-acetyl-8-cyclopentyl-5-methyl-7-oxo-7,8-dihydropyrido[2,3-d]pyrimidin-2-yl)amino)pyridin-3-yl)piperazin-1-yl)propyl) (methyl)amino)-1-oxoisoindolin-2-yl) piperidine-2,6-dione], for which the pIC50 in assay [1] was 6.70 to 7.30. In addition, on CDK4, the DC50 lay in the range of 50 to 200 nM and the Dmax is above 60%. On CDK6, the DC50 lay within 50 to 200 nM and the Dmax is above 60%.

`CC(=O)c1c(C)c2cnc(Nc3ccc(C4CCN(C(=O)C5CN(c6ccc7c(c6)C(=O)N(C6CCC(=O)NC6=O)C7=O)C5)CC4)cn3)nc2n(C2CCCC2)c1=O` (stereo not shown) [Compound 129, 5-(3-(4-(6-((6-acetyl-8-cyclopentyl-5-methyl-7-oxo-7,8-dihydropyrido[2,3-d]pyrimidin-2-yl)amino)pyridin-3-yl)piperidine-1-carbonyl)azetidin-1-yl)-2-(2,6-dioxopiperidin-3-yl)isoindoline-1,3-dione]: in assay [1], the pIC50 was 6.70 to 7.30. Further, on CDK4, the DC50 lay within 50 to 200 nM and the Dmax was above 80%. On CDK6, this molecule had a DC50 of 50 to 200 nM and a Dmax above 80%.
